Measurements taken from patent publication US20110183978A1, “Phenylpyri(mi)dinylazoles” (Bayer CropScience AG, priority 2009, published 2011).
Like-named read-outs stand apart in the source and are kept apart here.

Columns and labels:
Fusarium proliferatum = experiment: Example I: production of fumonisin FB1 by Fusarium proliferatum (microtitre plates); assay type: cell-based; conditions: 120 h
Fusarium graminearum = experiment: microbe, parasite or virus in culture; assay type: cell-based
Sphaerotheca fuliginea = experiment: Example L: in vivo test on Sphaerotheca fuliginea (powdery mildew on cucumber/protective); conditions: Podosphaera fuliginea, 168 h, cucumber, protective, assessment 7 days after inoculation, read-out: % Wirkungsgrad
Experimental: Solvent: 49 parts by weight N,N-dimethylformamide Emulsifier: 1 part by weight alkylaryl polyglycol ethers For the preparation of a suitable active substance preparation, 1 part by weight of active substance is mixed with the stated quantities of solvent and emulsifier and the concentrate is diluted to the desired concentration with water. For the testing for protective activity, young cucumber plants are sprayed with the active substance preparation at the stated application dosage. One day after the treatment, the plants are inoculated with a spore suspension of Sphaerotheca fuliginea. Next, the plants are placed in a greenhouse at 70% relative atmospheric humidity and a temperature of 23° C. 7 days after the inoculation, the assessment takes place.

Alternaria solani = experiment: Example M: in vivo test on Alternaria solani (leaf blotch disease/tomato/protective); conditions: 168 h, tomato, protective, 500 ppm active substance, assessed 7 days after inoculation, read-out: % Wirkungsgrad (activity level)
How it was run: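 Protective test: young tomato plants sprayed with active substance (in DMF with alkylaryl polyglycol ether emulsifier, diluted in water) at the stated dosage, then inoculated with Alternaria solani. Disease assessed 7 days after inoculation.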

Venturia inaequalis = experiment: Example O: in vivo test on Venturia inaequalis (apple scab/protective); conditions: 240 h, protective, assessment 10 days after inoculation, read-out: % Wirkungsgrad
Experimental: (§1) Emulsifier: 1 part by weight alkylaryl polyglycol ethers For the preparation of a suitable active substance preparation, 1 part by weight of active substance is mixed with the stated quantities of solvent and emulsifier and the concentrate is diluted to the desired concentration with water. For the testing for protective activity, young plants are sprayed with the active substance preparation at the stated application dosage. […] 10 days after the inoculation, the assessment takes place.

Botrytis cinerea = experiment: Example P: in vivo test on Botrytis cinerea (gray mould on bean/protective); conditions: 48 h, bean, protective, 250 ppm active substance, assessed 2 days after inoculation, read-out: % Wirkungsgrad (activity level)
Experimental: as §1, with “dosage. After drying of the spray coating, 2 small pieces of agar with Botrytis cinerea growing on them are laid on every leaf.” for “dosage.”, “2” for “10”, “size of the infection blotches on the leaves is assessed.” for “assessment takes place.”

[1] = Fusarium proliferatum growth, OD 620, 5 days, read-out: % Inhibition des Pilzwachstums bei 50 μM
[2] = Fusarium proliferatum, 5 days at 20° C., HPLC-MS/MS, read-out: % Inhibition der FB1 produktion bei 50 μM
[3] = 72 h, read-out: % Inhibition des Pilzwachstums bei 50 μM
[4] = 168 h, read-out: % Inhibition der DON/AcDON produktion bei 50 μM
[5] = LogPA (logP of the stated pure compound or, in a mixture, of the main isomer, 1-substituted 3-aryl-1H-pyrazole)

Compound	inhibition at 50 µM (Fusarium proliferatum; [1]) [%]	inhibition at 50 µM (Fusarium proliferatum; [2]) [%]	inhibition at 50 µM (Fusarium graminearum; [3]) [%]	inhibition at 50 µM (Fusarium graminearum; [4]) [%]	pest or weed control at 500 ppm (Sphaerotheca fuliginea) [%]	pest or weed control at 500 ppm (Alternaria solani) [%]	chromatographic logP (physchem; [5])	pest or weed control at 100 ppm (Venturia inaequalis) [%]	pest or weed control at 250 ppm (Botrytis cinerea) [%]	chromatographic logP (physchem; LogPA)
CC(C)Cn1cc(-c2ccncn2)c(-c2cccc(Cl)c2)n1 [Compound 5]	79	100	97	100	70	90	3.27			
Fc1ccc(-c2nn(C3CCCCO3)cc2-c2ccnc3[nH]ccc23)cc1 (stereo not shown) [Compound 20]	65	100	21	87			2.08			
Cc1nccc(-c2cn(C3CCCCO3)nc2-c2ccc(F)cc2)n1 (stereo not shown) [Compound 29]	34	82			70	78	2.53			
Fc1ccc(-c2nn(C3CCCCO3)cc2-c2ccnc3ccccc23)cc1 (stereo not shown) [Compound 54]	47	100	31	85			2.46			
CC(C)(C)n1cc(-c2ccncc2)c(-c2ccc(F)cc2)n1 [Compound 58]	42	89					2.62			
c1ccc(Oc2ccc(-c3c(-c4ccncc4)cnn3C3CCCCO3)cc2)cc1 (stereo not shown) [Compound 59, 4-[5-(4-phenoxyphenyl)-1-(tetrahydro-2H-pyran-2-yl)-1H-pyrazol-4-yl]pyridine]	0	95					1.88			
N#Cc1cccc(-c2c(-c3ccncc3)cnn2C2CCCCO2)c1 (stereo not shown) [Compound 60, 3-[4-(pyridin-4-yl)-1-(tetrahydro-2H-pyran-2-yl)-1H-pyrazol-5-yl]benzonitrile]	92	100					1.23			
Fc1ccc(-c2nn(C3CCCCO3)cc2-c2ncnc3[nH]ccc23)cc1 (stereo not shown) [Compound 66]	40	85					1.69			
Clc1ccc(-c2c(-c3ccncc3)cnn2C2CCCCO2)cc1 (stereo not shown) [Compound 70, 4-[5-(4-chlorophenyl)-1-(tetrahydro-2H-pyran-2-yl)-1H-pyrazol-4-yl]pyridine]	0	92					1.52			
CCC(=O)Nc1cc(-c2cn(CCOC)nc2-c2ccc(F)cc2)ccn1 [Compound 153, N-{4-[3-(4-fluorophenyl)-1-(2-methoxyethyl)-1H-pyrazol-4-yl]pyridin-2-yl}propanamide]	48	100	56	100		90	1.61			
CCC(C)n1cc(-c2ccnc(NC(=O)COC)c2)c(-c2ccc(F)cc2)n1 (stereo not shown) [Compound 162]			99	99	99	94	2.95	96	100	
COCCn1cc(-c2ccnc(NC(=O)COC)c2)c(-c2ccc(F)cc2)n1 [Compound 163]	72	100	100	100	93	93	2.05			
CC(C)Cn1cc(-c2ccnc(NC(=O)C3CC3)c2)c(-c2ccc(F)cc2)n1 [Compound 165]	90	100	64	100	86	95	2.6			
COCC(=O)Nc1cc(-c2cn(CC(C)C)nc2-c2ccc(F)cc2)ccn1 [Compound 166]	98	100	84	100	97	95				2.96
CCOCCn1cc(-c2ccncc2)c(-c2ccc(F)cc2)n1 [Compound 179]					74	100		100	100	1.25
N#CCn1cc(-c2ccncc2)c(-c2ccc(F)cc2)n1 [Compound 180]								96	93	0.89
CC(C)Cn1cc(-c2ccnc(NC(=O)Cc3ccccc3)c2)c(-c2ccc(F)cc2)n1 [Compound 191]	1	96								3.54
CCC(=O)Nc1cc(-c2cn(C3CCN(C(=O)OC(C)(C)C)CC3)nc2-c2ccc(F)cc2)ccn1 [Compound 193]	0	85				93				3.03
CCC(=O)Nc1cc(-c2c(-c3ccc(Cl)cc3F)nn(C)c2SC)ccn1 [Compound 195]	17	100	0	80		80				2.7
CCC(=O)Nc1cc(-c2c(-c3ccc(F)cc3O)nn(C)c2OC(F)F)ccn1 [Compound 196]	25	100				100				2.12
COCC(=O)Nc1cc(-c2c(-c3ccc(Cl)cc3F)nn(C)c2SC)ccn1 [Compound 200]	1	99				93				3
CC(C)n1cc(-c2ccnc(NC(=O)c3ccccc3)c2)c(-c2ccc(F)cc2)n1 [Compound 205]					100	95		91	100	3.2
CC(C)n1cc(-c2ccnc(NC(=O)C(C)(C)O)c2)c(-c2ccc(F)cc2)n1 [Compound 209]					100	95		89	100	2.42
CCC(=O)Nc1cc(-c2cn(Cc3ccccc3F)nc2-c2ccc(F)cc2)ccn1 [Compound 213]	56	100	0	100	74	90			91	2.69
COCC(=O)Nc1cc(-c2cn(CC(F)F)nc2-c2ccc(F)cc2)ccn1 [Compound 216]	97	100			89	95				2.27
COCC(=O)Nc1cc(-c2cn(CC3CC3)nc2-c2ccc(F)cc2)ccn1 [Compound 223]	96	100	99	97	91	90				2.61
CC(=O)Nc1cc(-c2cn(CC(F)F)nc2-c2ccc(F)cc2)ccn1 [Compound 242]					97	88		89	99	1.74
CC(C)(O)C(=O)Nc1cc(-c2cn(CC(F)F)nc2-c2ccc(F)cc2)ccn1 [Compound 243]					95	100		98	75	2.18
CCC(=O)Nc1cc(-c2cn(CC3CC3(Cl)Cl)nc2-c2ccc(F)cc2)ccn1 (stereo not shown) [Compound 249]					92	94		96	100	2.8
CC(C)C(=O)Nc1cc(-c2cn(CC3CC3(Cl)Cl)nc2-c2ccc(F)cc2)ccn1 (stereo not shown) [Compound 254]			16	99	92	94		73		3.17
